Results taken from EPA's ToxRefDB 2.

Test system: rat
Conditions: Prenatal developmental toxicity study, sprague dawley, Oral, Gavage/Intubation, dose end: 15 GD
[1] = group: developmental, systemic / in life observation / body weight / fetal weight
[2] = group: maternal, systemic / organ weight / placenta / absolute

## O=C1CCCO1 [4-Butyrolactone]
[1]
  LEL: 50 mg/kg/day
  LOAEL: > 500 mg/kg/day
  NEL: 10 mg/kg/day
  NOAEL: ≥ 500 mg/kg/day
[2]
  LEL: 10 mg/kg/day
  LOAEL: > 500 mg/kg/day
  NEL: < 10 mg/kg/day
  NOAEL: ≥ 500 mg/kg/day
